Biological target: T1, p21 protein (v-Ki-ras p21, serine at position 12) (Kirsten murine sarcoma virus, UniProt P01117)
T1 construct: made in house; host or cells: E. coli (plasmid pINIII-ras, gift of M. Inouye, printed 'Inouge')
Assay: Inhibition by nucleotides of anti-p21ser antibody binding to p21 protein under mild denaturation conditions
Settings: 10 mM nucleotide
Excerpt: An alternative explanation is that the antibody binds at some distance from the GTP binding site and yet alters GTP binding by disturbing the tertiary structure of the protein. […] The invention herein is not limited to either explanation.

T1 sequence (P01117 whole entry): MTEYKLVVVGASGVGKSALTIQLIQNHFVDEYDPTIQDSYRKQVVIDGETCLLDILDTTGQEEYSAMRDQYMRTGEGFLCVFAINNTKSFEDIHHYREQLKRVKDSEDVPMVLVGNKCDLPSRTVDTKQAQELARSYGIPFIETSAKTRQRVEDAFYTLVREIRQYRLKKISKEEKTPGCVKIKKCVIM

Row | SMILES | inhibition of the binding of anti-p21ser antibodies to p21 protein
1 | Nc1ncnc2c1ncn2[C@@H]1O[C@H](COP(=O)(O)OP(=O)(O)OP(=O)(O)O)[C@@H](O)[C@H]1O [ATP] | not
2 | Nc1nc2c(ncn2[C@@H]2O[C@H](COP(=O)(O)OP(=O)(O)OP(=O)(O)O)[C@@H](O)[C@H]2O)c(=O)[nH]1 [GTP, guanosine triphosphate] | substantially inhibit
